The record followed here is patent publication US12441727B2, “Tricyclic compounds as inhibitors of KRAS” (Incyte Corporation, priority 2021, dated 2025).

Structures are written as SMILES. Read-outs that look alike come from different tables or passages of the source. Bounds are passed on as bounds.

One series has as its target KRAS G12C (Homo sapiens, UniProt P01116, G12C). The series can be described thus: GDP-GTP exchange assay (KRAS_G12C exchange assay). It is filed as biochemical. To be noted: bodipy-loaded KRAS G12C 2.5 nM, SOS1 150 nM, 2 hours pre-incubation with inhibitor; read-out: G12C_exchange. The method in brief: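 Bodipy-GDP-loaded KRAS G12C (2.5 nM final) preincubated 2 hours with compound in 25 mM Hepes pH 7.5, 50 mM NaCl, 10 mM MgCl2, 0.01% Brij-35; exchange started with 500 uM GppNHp and 150 nM SOS1, run 2 hours at ambient temperature. Fluorescence read at 485/520 nm; IC50 by four-parameter logistic fit.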

The test system of another series is KRAS_G12C pERK. Kind of series: Cellular pERK HTRF assay (KRAS_G12C pERK assay). To be noted: KRAS G12C cells, 4 hours incubation with compound, read-out: G12C_pERK. It counts as cell-based, human. An outline of the steps: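 KRAS-mutant (G12C, G12D, G12V) and KRAS WT cancer cell lines, plated overnight in RPMI/10% FBS, were treated with compound (0.1% DMSO) at 37 °C for 4 h (G12C, G12V) or 2 h (G12D). Lysates were probed with anti-phospho-ERK1/2 HTRF antibody pair read at 665/620 nm; IC50 fitted.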

Series [1] has as its system KRAS_G12C pERK in MIA PaCa-2 cells. Kind of series: Whole Blood pERK1/2 HTRF assay (KRAS_G12C WB pERK assay). It is filed as cell-based, human. To be noted: compound in whole blood, 4 hours, read-out: G12C_WB_pERK. The protocol: MIA PaCa-2 cells (KRAS G12C; ATCC® CRL-1420), HPAF-II (KRAS G12D; ATCC® CRL-1997) and YAPC (KRAS G12V; DSMZ ACC382) are maintained in RPMI 1640 with 10% FBS (Gibco/Life Technologies). For MIA PaCa-2 assay, cells are seeded into 96 well tissue culture plates (Corning #3596) at 25000 cells per well in 100 uL media and cultured for 2 days at 37° C., 5% CO2 before the assay. For HPAF-II and YAPC assay, cells are seeded in 96 well tissue culture plates at 50000 cells per well in 100 uL media and cultured for 1 day before the assay. Whole Blood are added to the 1 uL dots of compounds (prepared in DMSO) in 96 well plates and mixed gently by pipetting up and down so that the concentration of the compound in blood is 1× of desired concentration, in 0.5% DMSO. The media is aspirated from the cells and 50 uL per well of whole blood with test compound is added and incubated for 4 hours for MIA PaCa and YAPC assay; or 2 hours for HPAF-II assay, respectively at 37° C., 5% CO2. After dumping the blood, the plates are gently washed twice by adding PBS to the side of the wells and dumping the PBS from the plate onto a paper towel, tapping the plate to drain well. Fifty ul/well of 1× lysis buffer #1 (Cisbio) with blocking reagent (Cisbio) and Benzonase nuclease (Sigma Cat #E1014-5KU, 1:10000 final concentration) is then added and incubated at room temperature for 30 minutes with shaking (250 rpm). Following lysis, 16 uL of lysate is transferred into 384-well Greiner small volume white plate using an Assist Plus (Integra Biosciences, NH). Four uL of 1:1 mixture of anti Phospho-ERK 1/2 d2 and anti Phospho-ERK 1/2 Cryptate (Cisbio) is added to the wells using the Assist Plus and incubated at room temperature overnight in the dark. Plates are read on the Pherastar plate reader at 665 nm and 620 nm wavelengths. Data are analyzed in Genedata Screener using SmartFit for IC50 values.
For orientation: TR-FRET usually uses a lanthanide donor and a delayed reading to cut background.

A short description of series [2]: Human whole blood stability. It is filed as in vitro ADME. To be noted: percent remaining at 4 hr, 1 μM, 37° C. The method, then:
The whole blood stability of the exemplified compounds was determined by LC-MS/MS. The 96-Well Flexi-Tier™ Block (Analytical Sales & Services, Inc, Flanders, NJ) is used for the incubation plate containing 1.0 mL glass vials with 0.5 mL of blood per vial (pooled gender, human whole blood sourced from BIOIVT, Hicksville, NY or similar). Blood is pre-warmed in water bath to 37° C. for 30 minutes. 96-deep well analysis plate is prepared with the addition of 100 μL ultrapure water/well. 50 μL chilled ultrapure water/well is added to 96-deep well sample collection plate and covered with a sealing mat. 1 μL of 0.5 mM compound working solution (DMSO:water) is added to the blood in incubation plate to reach final concentrations of 1 μM, mixed by pipetting thoroughly and 50 μL is transferred 50 into the T=0 wells of the sample collection plate. Blood is allowed to sit in the water for 2 minutes and then 400 μL stop solution/well is added (acetonitrile containing an internal standard). The incubation plate is placed in the Incu-Shaker CO2 Mini incubator (Benchmark Scientific, Sayreville, NJ) at 37° C. with shaking at 150 rpm. At 1, 2 and 4-hr, the blood samples are mixed thoroughly by pipetting and 50 μL is transferred into the corresponding wells of the sample collection plate. Blood is allowed to sit in the water for 2 minutes and then 400 μL of stop solution/well is added. The collection plate is sealed and vortexed at 1700 rpm for 3 minutes (VX-2500 Multi-Tube Vortexer, VWR International, Radnor, PA), and samples are then centrifuged in the collection plate at 3500 rpm for 10 minutes (Allegra X-14R Centrifuge Beckman Coulter, Indianapolis, IN). 100 μL of supernatant/well is transferred from the sample collection plate into the corresponding wells of the analysis plate. The final plate is vortexed at 1700 rpm for 1 minute and analyze samples by LC-MS/MS. The peak area ratio of the 1, 2, and 4 hr samples relative to T=0 is used to determine the percent remaining. The natural log of the percent remaining versus time is used determine a slope to calculate the compounds half-life in blood (t1/2=0.693/slope).

KRAS G12C, sequence (P01116 1-188 isoform P01116-2 G12C): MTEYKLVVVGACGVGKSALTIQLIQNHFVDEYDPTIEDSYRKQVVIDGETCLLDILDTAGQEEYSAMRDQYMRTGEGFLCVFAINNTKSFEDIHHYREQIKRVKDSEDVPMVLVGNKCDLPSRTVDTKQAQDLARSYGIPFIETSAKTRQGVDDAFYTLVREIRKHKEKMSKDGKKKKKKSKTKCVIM

With `CN(C)C1(C)CN(c2nc3c(Cl)c(-c4ccc(F)c5cccnc45)c(Cl)cc3c3c2nnn3[C@H]2CCN(C(=O)/C=C/CF)[C@H](CC#N)C2)C1` (single isomer, unassigned) [Example 19a], the IC50 at KRAS G12C was at most 50 nM; in the series on KRAS_G12C pERK (Homo sapiens, 4 h) it was at most 50 nM; in series [1] (Homo sapiens), at most 50 nM. In series [2], the “Human whole blood stability at 4 hr” value is listed as “†† (WBS >70% but ≤90%)”.
For the compound `COC/C=C/C(=O)N1CC[C@H](n2nnc3c(N4CC(C)(N(C)C)C4)nc4c(F)c(-c5ccc(F)c6cccnc56)c(C(F)(F)F)cc4c32)C[C@H]1CC#N` (single isomer, unassigned) [Example 20], the IC50 on KRAS G12C was at most 50 nM; in the series on KRAS_G12C pERK (Homo sapiens, 4 h), at most 50 nM; in series [1] (Homo sapiens), 100 to 1000 nM. In series [2], the “Human whole blood stability at 4 hr” value is reported as “††† (WBS >90%)”.
With `COC/C=C/C(=O)N1CC[C@H](n2nnc3c(O[C@@H](C)[C@@H]4CCCN4C)nc4c(F)c(-c5cnc(C)c6ccccc56)c(C)cc4c32)C[C@H]1CC#N` (single isomer, unassigned) [Example 26b], the IC50 on KRAS G12C was at most 50 nM; with KRAS_G12C pERK, at most 50 nM; in series [1] it was 50 to 100 nM. Moreover, the “Human whole blood stability at 4 hr” value in series [2] is recorded as “†† (WBS >70% but ≤90%)”.
On to `C=CC(=O)N1CC[C@H](n2nnc3c(O[C@@H](C)[C@@H]4CCCN4C)nc4c(F)c(-c5cccc6c5c(CC#N)nn6C)c(C)cc4c32)C[C@H]1C` (single isomer, unassigned) [Example 28b], for which the IC50 is at most 50 nM on KRAS G12C; at most 50 nM in the series with KRAS_G12C pERK (Homo sapiens, 4 h); 50 to 100 nM in series [1] (Homo sapiens). Besides, the “Human whole blood stability at 4 hr” value in series [2] was “†† (WBS >70% but ≤90%)”.
`C=C(F)C(=O)N1CC[C@H](n2nnc3c(N4CC(C)(N(C)CC)C4)nc4c(F)c(-c5c(C)c(F)cc6[nH]ncc56)c(C)cc4c32)C[C@H]1CC#N` (single isomer, unassigned) [Example 29]: the IC50 on KRAS G12C was at most 50 nM; in the series with KRAS_G12C pERK (Homo sapiens, 4 h), at most 50 nM; in series [1] (Homo sapiens) it was 100 to 1000 nM. The “Human whole blood stability at 4 hr” value in series [2] was “††† (WBS >90%)”.
On to `C=C(F)C(=O)N1CC[C@H](n2nnc3c(N4CC(C)(N(C)CC)C4)nc4c(F)c(-c5c(C)c(C)cc6[nH]ncc56)c(C)cc4c32)C[C@H]1CC#N` (single isomer, unassigned) [Example 30], for which the IC50 is at most 50 nM at KRAS G12C; at most 50 nM with KRAS_G12C pERK (Homo sapiens, 4 h); 50 to 100 nM in series [1] (Homo sapiens). For the same compound, the “Human whole blood stability at 4 hr” value in series [2] was “††† (WBS >90%)”.
In the case of `C=CC(=O)N1CC[C@H](n2nnc3c(O[C@@H](C)[C@@H]4CCCN4C)nc4c(F)c(-c5cccc6c5c(CC#N)cn6C)c(C)cc4c32)C[C@H]1C` (single isomer, unassigned) [Example 31b], the IC50 on KRAS G12C is at most 50 nM; in the series with KRAS_G12C pERK (Homo sapiens, 4 h), at most 50 nM; in series [1] (Homo sapiens) it was 50 to 100 nM. Besides, the “Human whole blood stability at 4 hr” value in series [2] is given as “†† (WBS >70% but ≤90%)”.
For `C=CC(=O)N1CCC(n2nnc3c(O[C@@H](C)[C@@H]4CCCN4C)nc4c(F)c(-c5cccc6c5c(CC#N)cn6C)c(C)cc4c32)CC1` (single isomer, unassigned) [Example 32b], the IC50 on KRAS G12C is at most 50 nM; with KRAS_G12C pERK (Homo sapiens, 4 h), at most 50 nM; in series [1] (Homo sapiens) it was at most 50 nM. Also, the “Human whole blood stability at 4 hr” value in series [2] is given as “†† (WBS >70% but ≤90%)”.
Take `C=C(F)C(=O)N1CC[C@H](n2nnc3c(N4CC(C)(N(C)CC)C4)nc4c(F)c(-c5c(C)c(C)cc6[nH]ncc56)c(Cl)cc4c32)C[C@H]1CC#N` (single isomer, unassigned) [Example 33a]: the IC50 at KRAS G12C is at most 50 nM; with KRAS_G12C pERK (Homo sapiens, 4 h), at most 50 nM; in series [1] (Homo sapiens), 50 to 100 nM. The “Human whole blood stability at 4 hr” value in series [2] is “†† (WBS >70% but ≤90%)”.
As to `C=C(F)C(=O)N1CC[C@H](n2nnc3c(N4CC(C)(N(C)CC)C4)nc4c(F)c(-c5c(C)c(F)cc6[nH]ncc56)c(Cl)cc4c32)C[C@H]1CC#N` (single isomer, unassigned) [Example 35a], the IC50 at KRAS G12C was at most 50 nM; with KRAS_G12C pERK (Homo sapiens, 4 h), at most 50 nM; in series [1] (Homo sapiens) it was 50 to 100 nM. Also, in series [2], the “Human whole blood stability at 4 hr” value was “††† (WBS >90%)”.
On to `Cc1cc2c(nc(O[C@@H](C)[C@@H]3CCCN3C)c3nnn([C@H]4CCN(C(=O)/C=C/CF)[C@H](CC#N)C4)c32)c(F)c1-c1ccc2cnn(C)c2c1` [Example 7, 2-((2S,4S)-4-(6-fluoro-8-methyl-7-(1-methyl-1H-indazol-6-yl)-4-((S)-1-((S)-1-methylpyrrolidin-2-yl)ethoxy)-1H-[1,2,3]triazolo[4,5-c]quinolin-1-yl)-1-((E)-4-fluorobut-2-enoyl)piperidin-2-yl)acetonitrile], for which the IC50 was at most 50 nM on KRAS G12C; at most 50 nM in the series on KRAS_G12C pERK (Homo sapiens, 4 h); at most 50 nM in series [1] (Homo sapiens). In addition, the “Human whole blood stability at 4 hr” value in series [2] was “††† (WBS >90%)”.
As to `Cc1ccc(-c2c(C)cc3c(nc(O[C@@H](C)[C@@H]4CCCN4C)c4nnn([C@H]5CCN(C(=O)/C=C/CF)[C@H](CC#N)C5)c43)c2F)cn1` [Example 8, 2-((2S,4S)-4-(6-fluoro-8-methyl-7-(6-methylpyridin-3-yl)-4-((S)-1-((S)-1-methylpyrrolidin-2-yl)ethoxy)-1H-[1,2,3]triazolo[4,5-c]quinolin-1-yl)-1-((E)-4-fluorobut-2-enoyl)piperidin-2-yl)acetonitrile], the IC50 on KRAS G12C is at most 50 nM; in the series on KRAS_G12C pERK (Homo sapiens, 4 h), at most 50 nM; in series [1] (Homo sapiens) it was at most 50 nM. For the same compound, the “Human whole blood stability at 4 hr” value in series [2] is listed as “†† (WBS >70% but ≤90%)”.
On to `COC/C=C/C(=O)N1CC[C@H](n2nnc3c(O[C@@H](C)[C@@H]4CCCN4C)nc4c(F)c(-c5ccc(F)cc5)c(C)cc4c32)C[C@H]1CC#N` [Example 10, 2-((2S,4S)-4-(6-fluoro-7-(4-fluorophenyl)-8-methyl-4-((S)-1-((S)-1-methylpyrrolidin-2-yl)ethoxy)-1H-[1,2,3]triazolo[4,5-c]quinolin-1-yl)-1-((E)-4-methoxybut-2-enoyl)piperidin-2-yl)acetonitrile], for which the IC50 at KRAS G12C was at most 50 nM; with KRAS_G12C pERK (Homo sapiens, 4 h) it was at most 50 nM; in series [1] (Homo sapiens) it was at most 50 nM. In addition, the “Human whole blood stability at 4 hr” value in series [2] is given as “††† (WBS >90%)”.
